This note sets out measurements from patent US20110159504A1, “METHYLATION MARKERS FOR SENSITIVITY TO MICROTUBE BASED THERAPIES AND METHODS OF USE” (THE JOHNS HOPKINS UNIVERSITY, priority 2008, published 2011).

“Also recorded” adds a separate entry of the source.

The subject of experiment [1] is advanced localized esophageal cancer. Nature of the experiment: Response (pCR) and overall survival of esophageal cancer patients after neoadjuvant chemoradiotherapy and surgery, by CHFR methylation status. To be noted: for Overall survival when CHFR methylation present vs. absent: paclitaxel n=31, docetaxel n=18, Kaplan-Meier; for Overall survival, docetaxel vs. paclitaxel: taxane-based therapy, N=49. Format: in vivo, human. As for the experimental part:
Endoscopic tumor biopsy specimens were studied from 81 patients with advanced localized esophageal cancer scheduled to undergo neoadjuvant chemoradiotherapy and surgery at the Johns Hopkins Hospital (JHH) between January 1995 and January 2007. Forty-nine patients were treated with taxane based combination chemoradiotherapy. Pretreatment esophageal tumor tissue from endoscsopic biopsy was initially available from JHH for twenty-one patients treated with taxanes. After an analysis of these initial 21 patients, IRB permission was obtained to request further biopsy specimens from referring endoscopy centers for patients subsequently treated at Johns Hopkins Hospital. This allowed analysis of pretreatment endoscopic tumor biopsies from an additional 28 patients treated with taxanes and 32 patients treated with non-taxane regimens. […] Of the forty-nine taxane-treated patients, thirty-one received paclitaxel containing combinations, while eighteen received a docetaxel-based combination shown in the Table below.
Response to preoperative chemoradiotherapy was based on pathology of the resected esophagus and nodal tissue specimen and classified as either pathologic complete response (pCR) or non-pCR, where pCR is the complete absence of intact tumor cells in surgical pathology specimens. We verified histological results and deaths during follow-up by re-examining original hospital records. This study was approved by the Johns Hopkins Institutional Review Board.
Methylation of CHFR was determined by detecting analyte (CHFR and ACTS) with real-time MSP using molecular beacons. These consisted of parallel amplification/quantification using specific primer and detector pairs for each analyte using the iCycler (BioRad Laboratories, Hercules, Calif.). […] Duplicate PCR amplifications were analyzed using iQuant 3.0 software (BioRad), exported as Ct values, and used to calculate copy numbers based on a linear regression of values plotted on a standard curve of 20-2×10^6 gene copy equivalents of plasmid DNA containing bisulfite modified CHFR. CHFR copy numbers were divided by ACTB copy numbers for each sample to normalize for DNA quality and quantity, multiplied by 100 for convenience to determine the ratio-value. […]
Based upon findings from the initial 21 patients treated with taxanes and 40% methylation prevalence, the study size necessary to detect a hazard ratio of death of 3.00 for unmethylated CHFR was estimated. […] The primary endpoint was time to death or censor measured from the origin date of pretreatment endoscopic biopsy. […] Associations between clinical response and CHFR methylation were assessed using logistic regression. […] Statistical comparisons and survival between groups were analyzed using the log-rank test. […]

For experiment [2], the system named is CHFR expression in esophageal cancer cell lines. Nature of the experiment: CHFR expression by RT-PCR in esophageal cancer cell lines after treatment with demethylating agent. Format: cell-based. To be noted: for Expression of CHFR (RNA level, RT-PCR) in CHFR-methylated cell lines: KYSE150 and KYSE510, no expression at baseline, 72 hour treatment. From the text:
A) Methylation-specific PCR (MSP) of the CHFR promoter region was examined in esophageal cancer cell lines. […] B) Expression of CHFR as determined by RT-PCR. […] C) Position of MSP primers and molecular beacon in the promoter region of the CHFR gene. A previously described gel-based MSP assay for detection of CHFR methylation in colorectal cancer was used 20.

Take `CC(=O)O[C@H]1C(=O)[C@@]2(C)[C@H]([C@H](OC(=O)c3ccccc3)[C@]3(O)C[C@H](OC(=O)[C@H](O)[C@@H](NC(=O)c4ccccc4)c4ccccc4)C(C)=C1C3(C)C)[C@]1(OC(C)=O)CO[C@@H]1C[C@@H]2O` [paclitaxel]: in experiment [1], the “Overall survival when CHFR methylation present vs. absent” value is reported as “survival advantage; also recorded: significantly greater” and the “Overall survival, docetaxel vs. paclitaxel” value is on record as “no difference”.
With `Nc1ncn([C@H]2C[C@H](O)[C@@H](CO)O2)c(=O)n1` [5-aza-2′-deoxycytidine], the entries for the “Expression of CHFR (RNA level, RT-PCR) in CHFR-methylated cell lines” value in experiment [2] and in experiment [2] (listed as 5-aza-2′ deoxycytidine) were “re-express the gene at the RNA level” and “reversed”, respectively. Moreover, in experiment [2] (all other (unmethylated) esophageal cancer cell lines, express CHFR at baseline), the “Expression of CHFR (RT-PCR) in unmethylated cell lines” value was “not affected”.
Turning to `CC(=O)O[C@@]12CO[C@@H]1C[C@H](O)[C@@]1(C)C(=O)[C@H](O)C3=C(C)[C@@H](OC(=O)[C@H](O)[C@@H](NC(=O)OC(C)(C)C)c4ccccc4)C[C@@](O)([C@@H](OC(=O)c4ccccc4)[C@H]21)C3(C)C` [docetaxel], in experiment [1], the “Overall survival when CHFR methylation present vs. absent” value is on record as “survival advantage; also recorded: improvement in survival” and the “Overall survival, docetaxel vs. paclitaxel” value is listed as “no difference”.
